The NIST ThermoML archive (doi:10.1016/j.jct.2013.06.020)

Columns and labels:
[1] = 298.15 K, 101.33 kPa, Liquid; for speed of sound: Sing-around technique in a fixed-path interferometer; for mass density: Vibrating tube method
[2] = mn = molality of the nth substance listed, in mol/kg; conditions: 298.15 K, 101 kPa, Liquid; for speed of sound: Sing-around technique in a fixed-path interferometer; for mass density: Vibrating tube method

CCOC(=O)C(C)O (racemic) [DL-ethyl lactate]
[1]
Conditions | mass density [kg/m3] | speed of sound [m/s]
– | 1028.37 | 1279.7

O=Cc1ccco1 [2-furaldehyde]
[1]
Conditions | mass density [kg/m3] | speed of sound [m/s]
– | 1154.81 | 1440.2

OCc1ccco1 [2-hydroxymethylfuran]
[1]
Conditions | mass density [kg/m3] | speed of sound [m/s]
– | 1130.27 | 1449.8

OCC1CCCO1 (stereo not given) [2-tetrahydrofurylmethanol]
[1]
Conditions | mass density [kg/m3] | speed of sound [m/s]
– | 1050.75 | 1485.2

Cc1ccc(C=O)o1 [5-methylfurfural]
[1]
Conditions | mass density [kg/m3] | speed of sound [m/s]
– | 1103.2 | 1447

CCCCOC(=O)C(C)O (stereo not given) [butyl 2-hydroxypropanoate]
[1]
Conditions | mass density [kg/m3] | speed of sound [m/s]
– | 977.283 | 1285

CCCCOC(=O)CCC(C)=O [butyl levulinate]
[1]
Conditions | mass density [kg/m3] | speed of sound [m/s]
– | 969.935 | 1341.3

CCOC(=O)CCC(C)=O [ethyl levulinate]
[1]
Conditions | mass density [kg/m3] | speed of sound [m/s]
– | 1007.54 | 1351.2

COC(=O)C(C)O (stereo not given) [methyl 2-hydroxypropanoate]
[1]
Conditions | mass density [kg/m3] | speed of sound [m/s]
– | 1087.43 | 1338.8

COC(=O)CCC(C)=O [methyl levulinate]
[1]
Conditions | mass density [kg/m3] | speed of sound [m/s]
– | 1045.4 | 1386.2

COC(=O)CCC(C)=O [methyl levulinate] + O
[2]
Conditions | mass density [kg/m3] | speed of sound [m/s]
m1 = 0.0322 | 997.582 | 1499.2
m1 = 0.0375 | 997.646 | 1499.4
m1 = 0.0399 | 997.675 | 1499.7
m1 = 0.042 | 997.701 | 1499.7
m1 = 0.0537 | 997.774 | 1500
m1 = 0.0724 | 998.063 | 1500.9
m1 = 0.0737 | 998.08 | 1501
m1 = 0.1127 | 998.543 | 1503.2
m1 = 0.1571 | 999.079 | 1505.7
m1 = 0.1949 | 999.523 | 1507.7
m1 = 0.2491 | 1000.15 | 1510.6
m1 = 0.3297 | 1001.08 | 1514.6
m1 = 0.3905 | 1001.76 | 1517.5
m1 = 0.4721 | 1002.66 | 1521.3
m1 = 0.5562 | 1003.58 | 1525.1
m1 = 0.6293 | 1004.35 | 1527.8
m1 = 0.7107 | 1005.19 | 1530.9
m1 = 0.7782 | 1005.87 | 1533.4
m1 = 0.9597 | 1007.31 | 1539.2
m1 = 1.161 | 1008.76 | 1544.8

C=CC(=O)OC [methyl propenoate]
[1]
Conditions | mass density [kg/m3] | speed of sound [m/s]
– | 949.174 | 1169

C=CC(=O)OC [methyl propenoate] + O
[2]
Conditions | mass density [kg/m3] | speed of sound [m/s]
m1 = 0.0393 | 997.315 | 1498.3
m1 = 0.0445 | 997.337 | 1498.7
m1 = 0.0475 | 997.348 | 1498.9
m1 = 0.0543 | 997.381 | 1499.1
m1 = 0.0631 | 997.409 | 1499.5
m1 = 0.0712 | 997.451 | 1499.9
m1 = 0.0962 | 997.547 | 1500.9
m1 = 0.1341 | 997.677 | 1502.1
m1 = 0.1473 | 997.72 | 1502.6
m1 = 0.1826 | 997.809 | 1503.8
m1 = 0.2485 | 998.068 | 1506.2
m1 = 0.3666 | 998.512 | 1510.6
m1 = 0.4288 | 998.73 | 1513.1
m1 = 0.5131 | 999.004 | 1516.7
